From patent publication EP0107208A1, “1,1,2-Triphenyl-but-1-ene derivatives, process for their preparation and their use as medicines” (Klinge Pharma GmbH, priority 1982, dated 1984)
Several values for one entry are separate records, joined by “and”; a condition that tells them apart may be missing. Identical values can stand only once. Like-named read-outs stand apart in the source and are kept apart here.

Columns and labels:
ZR-75-1-Zellen [1] = assay: Inhibition of RNA synthesis in isolated human mammary tumour cells (incorporation of labelled uridine); format: cell-based; conditions: for inhibition at 0.1 µM / inhibition at 1 µM / inhibition at 4 µM: Homo sapiens, ZR-75-1, 48 h; for Prozentuale Hemmung der RNS-Synthese: 2880 min
Text: […] positive [ER +] Mammatumor-Zellen aus Patienten zu isolieren und in vitro kontinuierlich zu […] sog. […] in vivo beobachteten morphologischen […] und […] somit […] zur Testung von Antiestrogenen dar,da direkte Aussagen über den Einfluß auf den in vivo zu […]. […] Der Einfluß der beanspruchten Verbindunger. auf das Wachstum dieser Zellen wurde über den Einbau von […] bzw. Thymidin nach der Methode von Lippman, M. et al kontrolliert. […] Thymidin versetzt und nach einer Stunde die Einbaurate des markierten Materials in den Zellen bestimmt.

ZR-75-1-Zellen [2] = assay: Inhibition of RNA synthesis in ZR-75-1 cells in the presence of 17-β-estradiol; format: cell-based; conditions: Homo sapiens, compound 1 x 10^-6 [M] + 17-β-Estradiol 1 x 10^-8 [M], 48 h incubation, read-out: Prozentuale Hemmung der RNS-Synthese
Text: Zur […] vivo wurde die Potenz der antiestrogenen Wirkung der beanspruchten Verbindungen in Gegenwart eines Estrogens geprüft. […] Thymidin hinzugefügt und nach einer Stunde die Einbaurate des markierten Materials in gen Zellen bestimmt.[Tab.4]

Estradiolrezeptor = biological target: T1, Estradiolrezeptor (Oryctolagus cuniculus, UniProt G1SML6); assay: Binding affinity to the estradiol receptor: displacement of [3H]-estradiol in rabbit uterus cytosol; parameters: species or system Kaninchen (Neuseeländer); conditions: molar concentration displacing 50% [3H]-Estradiol from the receptor, 18 h at 4° C, 2.5 ×10^-9 M [3H]-Estradiol, read-out: ED50% (the source's name)
T1 construct: Das Uteruscytosol von weiblichen, präpubertären, weißen 2 kg schweren Kaninchen (Neuseeländer); from tissue; host or cells: uterus cytosol of female prepubertal New Zealand white rabbits
T1 sequence (G1SML6 1-598): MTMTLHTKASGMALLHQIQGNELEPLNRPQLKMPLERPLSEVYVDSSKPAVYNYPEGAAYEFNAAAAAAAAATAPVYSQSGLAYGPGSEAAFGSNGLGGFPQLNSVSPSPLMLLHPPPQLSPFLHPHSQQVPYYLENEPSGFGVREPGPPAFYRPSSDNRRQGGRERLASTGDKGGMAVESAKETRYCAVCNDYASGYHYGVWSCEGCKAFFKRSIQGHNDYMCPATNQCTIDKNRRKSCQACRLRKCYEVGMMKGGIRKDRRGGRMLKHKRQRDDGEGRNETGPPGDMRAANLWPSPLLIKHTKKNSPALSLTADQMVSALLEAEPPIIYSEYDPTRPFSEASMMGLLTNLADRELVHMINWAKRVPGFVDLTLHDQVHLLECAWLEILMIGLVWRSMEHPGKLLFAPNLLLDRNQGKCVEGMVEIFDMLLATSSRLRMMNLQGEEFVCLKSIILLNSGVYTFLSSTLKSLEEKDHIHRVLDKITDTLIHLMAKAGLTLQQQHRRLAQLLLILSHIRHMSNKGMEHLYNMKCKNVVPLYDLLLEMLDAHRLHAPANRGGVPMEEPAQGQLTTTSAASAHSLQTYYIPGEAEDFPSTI
Text: Die Messung der Eindungsaffinität zum Estradiolrezeptor erfolgte nach der Eethode von N. Devleeschouwer, G. Leclercq, A. Danguy und J. C. Heuson LEurop. J. Cancer, 14 ,721 - 723 (197o)].
Testsubstanz verschiedener Konzentration inkubiert.Die Bindungsaffinität zum Estradiolrezeptor wird ausgedrückt durch die aen. […] Testsubstanz, welche eine 5C-prcz.

[3] = read-out: Prozentuale Hemmung der RNS-Synthese

SMILES	inhibition at 0.1 µM (ZR-75-1-Zellen [1]; [3])	inhibition at 1 µM (ZR-75-1-Zellen [1]; [3])	inhibition at 4 µM (ZR-75-1-Zellen [1]; [3])	inhibition at 1 µM (ZR-75-1-Zellen [2])	IC50 (Estradiolrezeptor)	inhibition at 1 µM (ZR-75-1-Zellen [1]; read-out: Prozentuale Hemmung der RNS-Synthese, substance concentration 1 x 10^-6[M], 48 h incubation, Tamoxifen run in each experiment)	inhibition at 4 µM (ZR-75-1-Zellen [1]; read-out: Prozentuale Hemmung der RNS-Synthese, substance concentration 4 x 10^-6[M], 48 h incubation, Tamoxifen run in each experiment)	Prozentuale Hemmung der RNS-Synthese (ZR-75-1-Zellen [1]; substance concentration 1 x 10^-6[M], 48 h incubation, Tamoxifen run in each experiment, 1 µM)	Prozentuale Hemmung der RNS-Synthese (ZR-75-1-Zellen [1]; substance concentration 1 x 10^-6[M], 48 h incubation, Tamoxifen run in each experiment, listed as Taxoxifen, 1 µM)	Prozentuale Hemmung der RNS-Synthese (ZR-75-1-Zellen [1]; substance concentration 1 x 10^-7[M], 48 h incubation, Tamoxifen run in each experiment, 0.1 µM)	Prozentuale Hemmung der RNS-Synthese (ZR-75-1-Zellen [1]; substance concentration 1 x 10^-7[M], 48 h incubation, Tamoxifen run in each experiment, 0.1 µM, listed as Taxoxifen)	Prozentuale Hemmung der RNS-Synthese (ZR-75-1-Zellen [1]; substance concentration 4 x 10^-6[M], 48 h incubation, Tamoxifen run in each experiment, 4 µM)	Prozentuale Hemmung der RNS-Synthese (ZR-75-1-Zellen [1]; substance concentration 4 x 10^-6[M], 48 h incubation, Tamoxifen run in each experiment, listed as Taxoxifen, 4 µM)
CC/C(=C(/c1ccc(OCCN(C)C)cc1)c1cccc(O)c1)c1ccc(C)cc1 [Verbindung 2]	42%	62%	100%	58%	73 nM								
CC/C(=C(/c1ccc(OCCN(C)C)cc1)c1cccc(O)c1)c1cccc(C)c1 [Verbindung 1, (E)-1-[4'-(2-Dimethylaminoethoxy)phenyl]-1-(3'-hydroxyphenyl)-2-(3'-methylphenyl)-but-1-en]	47%	74%	100%	74%	35 nM								
CC/C(=C(/c1ccc(OCCN(C)C)cc1)c1cccc(O)c1)c1ccc(Br)cc1 [Verbindung 6, (E)-2-(4'-Bromphenyl)-1-[4'-(2-dimethylaminoethoxy)phenyl]-1-(3'-hydroxyphenyl)-but-l-en]	47%	70%	100%	74%									
CC/C(=C(/c1ccc(OCCN(C)C)cc1)c1cccc(O)c1)c1cccc(O)c1 [Verbindung 4, (E)-1-[4'-(2-Dimethylaminoethoxy)phenyl]-1,2-bis-(3'-hydroxyphenyl)-but-1-en]	33%	73%	100%	79%									
CC/C(=C(/c1ccc(OCCN(C)C)cc1)c1cccc(O)c1)c1ccc(Cl)cc1 [Verbindung 5]	41%	61%	100%		85 nM								
CC/C(=C(/c1ccc(OCCN(C)C)cc1)c1cccc(O)c1)c1ccc(OC)cc1 [Verbindung 3, (E)-1-[4'-(2-Dimethylaminoethoxy)phenyl]-1-(3'-hydroxyphenyl)-2-(4'-methoxyphenyl)-but-1-en]	36%	68%	100%	65%	28 nM								
CC/C(=C(/c1ccc(OCCN(CC)CC)cc1)c1cccc(O)c1)c1ccc(OC)cc1 [Verbindung 7, (E)-1-[4'-(2-Diethylaminoethoxy)phenyl]-1-(3'-hydroxyphenyl)-2-(4'methoxyphenyl)-but-l-en]	4%	37%	91%	41%									
CC/C(=C(\c1ccccc1)c1ccc(OCCN(C)C)cc1)c1ccccc1 [Tamoxifen, (Z)-1-[4'-(2-Dimetrylaminoethcxy)phenyl]-1,2-diphenyl-but-1-en, reference compound]						43%	99%	44% and 39% and 59%	46%	29% and 16%	2%	100%	93%
